The values that follow come from patent publication US20240246942A1, “KINASE INHIBITORS FOR THE TREATMENT OF NEURODEGENERATIVE DISEASES” (priority 2020, published 2024).

What all share (test): biochemical
The target of assay [1] is T1, panel of 374 wild-type kinases (Homo sapiens, UniProt P06239).
T1 construct: purchased Reaction Biology Corporation
As to conditions: read-out: % Enzyme Activity (relative to DMSO controls), LCK.

Assay [2] deals with T2, panel of 374 wild-type kinases (Homo sapiens, UniProt P21709).
T2 construct: purchased Reaction Biology Corporation
T2 sequence (P21709 26-976): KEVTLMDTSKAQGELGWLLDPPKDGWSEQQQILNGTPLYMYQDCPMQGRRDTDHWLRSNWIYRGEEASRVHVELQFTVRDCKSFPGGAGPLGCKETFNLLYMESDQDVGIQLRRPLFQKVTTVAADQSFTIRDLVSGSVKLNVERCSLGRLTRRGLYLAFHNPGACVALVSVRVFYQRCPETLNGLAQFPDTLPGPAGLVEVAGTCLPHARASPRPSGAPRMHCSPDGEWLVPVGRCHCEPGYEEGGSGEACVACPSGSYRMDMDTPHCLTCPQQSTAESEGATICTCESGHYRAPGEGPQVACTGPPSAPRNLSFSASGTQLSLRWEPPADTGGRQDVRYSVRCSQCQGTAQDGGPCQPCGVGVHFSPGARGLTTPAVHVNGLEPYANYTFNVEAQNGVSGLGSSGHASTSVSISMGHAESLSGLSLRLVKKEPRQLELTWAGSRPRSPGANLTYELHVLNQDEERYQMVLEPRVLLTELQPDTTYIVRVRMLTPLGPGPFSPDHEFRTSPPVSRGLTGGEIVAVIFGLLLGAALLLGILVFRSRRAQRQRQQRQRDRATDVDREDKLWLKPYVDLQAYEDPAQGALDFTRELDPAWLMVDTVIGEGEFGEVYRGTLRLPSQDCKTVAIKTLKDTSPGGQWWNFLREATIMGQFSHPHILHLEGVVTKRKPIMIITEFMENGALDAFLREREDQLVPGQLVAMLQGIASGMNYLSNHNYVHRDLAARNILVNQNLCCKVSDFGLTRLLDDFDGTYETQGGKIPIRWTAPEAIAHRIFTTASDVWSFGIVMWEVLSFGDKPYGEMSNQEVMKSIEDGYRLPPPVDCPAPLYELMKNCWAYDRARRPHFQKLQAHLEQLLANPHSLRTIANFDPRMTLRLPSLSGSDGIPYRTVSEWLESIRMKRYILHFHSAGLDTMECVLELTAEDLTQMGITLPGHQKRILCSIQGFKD
To be noted: read-out: % Enzyme Activity (relative to DMSO controls), EPHA1.

The target of assay [3] is T3, panel of 374 wild-type kinases (Homo sapiens, UniProt P42680).
T3 construct: purchased Reaction Biology Corporation
T3 sequence (P42680 1-631): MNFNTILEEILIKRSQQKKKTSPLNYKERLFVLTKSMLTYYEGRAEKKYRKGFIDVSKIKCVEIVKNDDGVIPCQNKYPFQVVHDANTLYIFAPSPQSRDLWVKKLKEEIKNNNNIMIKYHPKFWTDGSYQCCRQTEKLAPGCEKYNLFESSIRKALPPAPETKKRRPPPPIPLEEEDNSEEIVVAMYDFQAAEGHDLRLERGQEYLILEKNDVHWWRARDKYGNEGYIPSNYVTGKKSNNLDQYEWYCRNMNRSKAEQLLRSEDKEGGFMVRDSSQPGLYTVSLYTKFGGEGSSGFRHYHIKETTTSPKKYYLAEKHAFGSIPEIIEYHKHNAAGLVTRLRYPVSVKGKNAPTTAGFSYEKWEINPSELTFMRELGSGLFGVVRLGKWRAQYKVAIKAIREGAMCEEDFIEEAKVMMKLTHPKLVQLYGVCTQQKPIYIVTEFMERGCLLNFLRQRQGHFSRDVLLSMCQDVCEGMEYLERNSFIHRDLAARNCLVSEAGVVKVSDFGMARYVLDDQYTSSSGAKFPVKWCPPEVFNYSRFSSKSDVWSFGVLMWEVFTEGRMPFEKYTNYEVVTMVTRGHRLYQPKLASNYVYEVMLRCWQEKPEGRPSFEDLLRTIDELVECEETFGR
As to conditions: read-out: % Enzyme Activity (relative to DMSO controls), kinase TEC.

The target in assay [4] is T4, panel of 374 wild-type kinases (Homo sapiens, UniProt P51957).
T4 construct: purchased Reaction Biology Corporation
As to conditions: read-out: % Enzyme Activity (relative to DMSO controls), NEK4.

Assay [5] has as its target T5, panel of 374 wild-type kinases (Homo sapiens, UniProt P53778).
T5 construct: purchased Reaction Biology Corporation
T5 sequence (P53778 1-367): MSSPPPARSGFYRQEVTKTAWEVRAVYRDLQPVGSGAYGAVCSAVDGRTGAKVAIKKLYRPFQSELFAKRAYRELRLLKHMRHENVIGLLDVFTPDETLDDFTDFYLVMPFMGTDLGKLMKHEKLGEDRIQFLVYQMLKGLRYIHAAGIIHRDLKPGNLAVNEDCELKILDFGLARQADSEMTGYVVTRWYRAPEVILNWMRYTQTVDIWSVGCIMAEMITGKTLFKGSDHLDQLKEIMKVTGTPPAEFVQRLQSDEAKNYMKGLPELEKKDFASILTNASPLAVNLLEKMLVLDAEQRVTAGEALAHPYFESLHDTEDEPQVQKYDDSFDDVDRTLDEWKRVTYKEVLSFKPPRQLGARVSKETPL
As to conditions: read-out: % Enzyme Activity (relative to DMSO controls), kinase P38g.

The target of assay [6] is T6, panel of 374 wild-type kinases (Homo sapiens, UniProt Q13470).
T6 construct: purchased Reaction Biology Corporation
T6 sequence (Q13470 1-666): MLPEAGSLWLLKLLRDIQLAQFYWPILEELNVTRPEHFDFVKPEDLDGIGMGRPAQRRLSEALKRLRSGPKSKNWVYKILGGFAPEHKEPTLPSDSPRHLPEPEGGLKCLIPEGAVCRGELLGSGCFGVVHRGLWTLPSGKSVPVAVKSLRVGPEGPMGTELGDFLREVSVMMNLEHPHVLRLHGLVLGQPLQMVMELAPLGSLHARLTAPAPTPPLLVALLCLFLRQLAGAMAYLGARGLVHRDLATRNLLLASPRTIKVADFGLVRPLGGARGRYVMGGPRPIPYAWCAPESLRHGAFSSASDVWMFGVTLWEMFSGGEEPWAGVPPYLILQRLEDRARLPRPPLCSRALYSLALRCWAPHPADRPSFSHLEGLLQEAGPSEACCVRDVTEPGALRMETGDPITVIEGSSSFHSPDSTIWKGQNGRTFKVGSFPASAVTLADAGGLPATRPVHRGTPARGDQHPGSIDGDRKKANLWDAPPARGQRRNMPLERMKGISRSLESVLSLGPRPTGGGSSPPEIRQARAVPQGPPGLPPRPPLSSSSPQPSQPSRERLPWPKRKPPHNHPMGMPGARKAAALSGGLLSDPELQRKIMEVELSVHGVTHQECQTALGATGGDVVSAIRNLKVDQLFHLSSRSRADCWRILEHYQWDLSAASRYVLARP
As to conditions: read-out: % Enzyme Activity (relative to DMSO controls), kinase TNK1.

T4 sequence (P51957 whole entry): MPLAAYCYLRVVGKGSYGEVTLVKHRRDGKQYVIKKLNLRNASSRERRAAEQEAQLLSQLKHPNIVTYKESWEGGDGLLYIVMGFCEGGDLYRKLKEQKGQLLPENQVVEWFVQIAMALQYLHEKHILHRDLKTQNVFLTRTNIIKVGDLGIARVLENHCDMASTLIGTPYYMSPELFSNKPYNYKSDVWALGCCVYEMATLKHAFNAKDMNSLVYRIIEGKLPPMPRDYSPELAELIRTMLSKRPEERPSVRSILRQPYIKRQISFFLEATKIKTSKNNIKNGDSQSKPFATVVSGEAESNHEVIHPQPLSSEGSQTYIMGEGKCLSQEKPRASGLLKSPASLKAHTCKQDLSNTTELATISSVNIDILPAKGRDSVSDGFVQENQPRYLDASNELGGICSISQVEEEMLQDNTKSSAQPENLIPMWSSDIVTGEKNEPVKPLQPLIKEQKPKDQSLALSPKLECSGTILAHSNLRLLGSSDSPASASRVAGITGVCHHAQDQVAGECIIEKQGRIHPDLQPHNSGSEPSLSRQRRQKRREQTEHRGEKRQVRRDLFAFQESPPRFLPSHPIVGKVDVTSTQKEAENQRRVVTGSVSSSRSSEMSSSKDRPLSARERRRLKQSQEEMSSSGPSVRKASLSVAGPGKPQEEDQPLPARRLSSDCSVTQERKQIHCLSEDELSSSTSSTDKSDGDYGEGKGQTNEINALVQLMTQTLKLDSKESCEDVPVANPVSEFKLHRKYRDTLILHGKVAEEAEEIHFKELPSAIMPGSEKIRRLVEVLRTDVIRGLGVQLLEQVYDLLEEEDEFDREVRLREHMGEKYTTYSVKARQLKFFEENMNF
T1 sequence (P06239 whole entry): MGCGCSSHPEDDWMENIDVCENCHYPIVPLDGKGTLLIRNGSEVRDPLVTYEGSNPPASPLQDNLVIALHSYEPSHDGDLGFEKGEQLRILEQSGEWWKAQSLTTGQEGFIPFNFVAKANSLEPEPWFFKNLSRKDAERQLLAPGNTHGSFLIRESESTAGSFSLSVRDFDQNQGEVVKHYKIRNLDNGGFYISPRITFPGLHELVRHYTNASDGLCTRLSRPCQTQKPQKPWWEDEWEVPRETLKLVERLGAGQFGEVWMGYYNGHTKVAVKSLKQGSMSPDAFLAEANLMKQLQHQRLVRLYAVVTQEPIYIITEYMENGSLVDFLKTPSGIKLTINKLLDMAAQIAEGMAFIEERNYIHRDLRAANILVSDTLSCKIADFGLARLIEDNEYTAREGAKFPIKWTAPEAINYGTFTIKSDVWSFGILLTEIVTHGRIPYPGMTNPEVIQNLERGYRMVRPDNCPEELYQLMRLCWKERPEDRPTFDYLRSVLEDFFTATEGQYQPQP

On to `O=C(Nc1cnn(-c2csc(C(=O)NC3COC3)c2)c1)Nc1ccccc1Cl` [Compound 17, 4-(4-(3-(2-chlorophenyl)ureido)-1H-pyrazol-1-yl)-N-(oxetan-3-yl)thiophene-2-carboxamide], for which the remaining activity at 5 µM worked out at 99.1% in assay [1]; 99.1% in assay [2]; 97.2% in assay [3]; 109% in assay [4]; 99.4% in assay [5]; 100% in assay [6].

As for `O=C(Nc1cnn(-c2csc(C(=O)NC3COC3)c2)c1)Nc1c(F)cccc1Cl` [Compound 25, 4-(4-(3-(2-chloro-6-fluorophenyl)ureido)-1H-pyrazol-1-yl)-N-(oxetan-3-yl)thiophene-2-carboxamide], the remaining activity at 5 µM in assay [1] was 94.2%; in assay [2] it was 88.4%; in assay [3], 97.7%; in assay [4] it was 90.8%; in assay [5] it was 98.3%; in assay [6] it was 91.5%.

`Cc1sc(C(=O)NC2COC2)cc1-n1cc(NC(=O)Nc2c(F)cccc2Cl)cn1` [Compound 27, 4-(4-(3-(2-chloro-6-fluorophenyl)ureido)-1H-pyrazol-1-yl)-5-methyl-N-(oxetan-3-yl)thiophene-2-carboxamide]: the remaining activity at 10 µM in assay [1] (10 uM) came out at 46.5%; in assay [2] (10 uM), 88.5%; in assay [3] (10 uM), 91.1%; in assay [4] (10 uM) it was 75.5%; in assay [5] (10 uM), 90.5%; in assay [6] (10 uM) it was 105%.
